Reference: patent US20100016331A1, “NOVEL COMPOUNDS” (priority 2006, published 2010)

Legend:
[1] = system: NFkB Activity; assay: Glucocorticoid Mediated Transrepression of NFkB Activity (A549 cells, NFkB dependent ELAM promoter, secreted placental alkaline phosphatase reporter, TNFα stimulated); type: cell-based; conditions: Human A549 lung epithelial cells, 3 ng/ml human recombinant TNFα, 16 hr; read-out: pEC50, transrepression of NFkB activity (converted)
Description: Glucocorticoid Mediated Transrepression of NFkB Activity
Human A549 lung epithelial cells were engineered to contain a secreted placental alkaline phosphatase gene under the control of the distal region of the NFkB dependent ELAM promoter as previously described in Ray, K. P., Farrow, S., Daly, M., Talabot, F. and Searle, N. “Induction of the E-selectin promoter by interleukin 1 and tumour necrosis factor alpha, andinhibition by glucocorticoids” Biochemical Journal (1997) 328: 707-15.
Compounds were solvated and dilutedin DMSO, and transferred directly into assay plates such that the final concentration of DMSO was 0.7%. Following the addition of cells (40K per well), plates were incubated for 1 hr prior to the addition of 3 ng/ml human recombinant TNFα. Following continued incubation for 16 hr, alkaline phosphatase activity was determined by measuring the change in optical density at 405 nm with time following the addition of 0.7 volumes of assay buffer (1 mg/ml p-nitrophenylphosphate dissolvedin 1M diethanolamine, 0.28M NaCl, 0.5 mM MgCl2). Dose response curves were constructed from which EC50 values were estimated.

[2] = biological target: T1, glucocorticoid receptor (Homo sapiens, UniProt P04150); assay: Glucocorticoid Receptor Binding Assay (fluorescence polarisation, competition with Alexa 555 labelled dexamethasone derivative); conditions: displacement of fluorescent dexamethasone, partially purified full length glucocorticoid receptor, 2 hours at room temperature; read-out: glucocorticoid binding pIC50 (converted)
T1 construct: a partially purified full length glucocorticoid receptor were added to the plates
T1 sequence (P04150 1-777): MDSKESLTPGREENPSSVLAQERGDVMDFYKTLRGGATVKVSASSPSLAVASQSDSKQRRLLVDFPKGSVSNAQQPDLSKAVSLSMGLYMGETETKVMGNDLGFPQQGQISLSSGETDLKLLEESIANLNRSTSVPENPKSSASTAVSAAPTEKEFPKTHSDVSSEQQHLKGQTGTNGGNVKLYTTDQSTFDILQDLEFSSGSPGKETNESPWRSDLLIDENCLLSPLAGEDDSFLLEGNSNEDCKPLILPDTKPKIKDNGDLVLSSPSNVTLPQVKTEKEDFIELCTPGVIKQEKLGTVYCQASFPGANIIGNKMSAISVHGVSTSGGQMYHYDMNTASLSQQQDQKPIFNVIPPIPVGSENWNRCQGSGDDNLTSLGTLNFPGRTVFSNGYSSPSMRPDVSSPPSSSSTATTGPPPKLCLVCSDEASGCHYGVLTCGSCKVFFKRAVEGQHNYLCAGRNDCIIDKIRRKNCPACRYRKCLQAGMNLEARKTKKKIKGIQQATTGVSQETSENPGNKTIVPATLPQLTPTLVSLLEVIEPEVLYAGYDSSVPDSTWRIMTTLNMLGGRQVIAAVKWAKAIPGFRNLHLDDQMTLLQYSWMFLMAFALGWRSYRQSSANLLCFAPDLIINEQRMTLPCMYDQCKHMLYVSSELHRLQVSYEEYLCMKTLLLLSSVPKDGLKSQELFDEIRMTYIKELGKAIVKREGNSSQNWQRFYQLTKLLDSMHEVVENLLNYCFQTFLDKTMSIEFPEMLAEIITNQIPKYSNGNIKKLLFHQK
Method: Glucocorticoid Receptor Binding Assay
The ability of compounds to bind to the glucocorticoid receptor was determined by assessing their ability to compete with an Alexa 555 fluorescently-labelled dexamethasone derivative. Compounds were solvated and dilutedin DMSO, and transferred directly into assay plates. Fluorescent dexamethasone and a partially purified full length glucocorticoid receptor were added to the plates, together with buffer components to stabilise the GR protein (including stabilisation peptide (Panvera catalogue number P2815)) andincubated at room temperature for 2 hours in the dark. Binding of each compound was assessed by analysing the displacement of fluorescent ligand by measuring the decrease in fluorescence polarisation signal from the mixture.

COc1ccc(F)cc1C(C)(C)CC(O)(CNc1cc(C)cc2c1cnn2-c1cccc(C(=O)N[C@H]2CCOC2=O)c1)C(F)(F)F (single isomer, unassigned) [Example 21-A]
EC50 [1]: < 10 nM
IC50 [2]: < 316 nM
